Measured values reported in patent US20240025849A1 (MAX DELBRÜCK-CENTRUM FÜR MOLEKULARE MEDIZIN IN DER …, priority 2020, published 2024).
Where “and” joins values, the source holds several entries; their conditions need not be identical. Equal values may be shown once. Entries after “also recorded” stand apart in the source; their conditions may differ.

How the values were obtained:
[1] = system: bone marrow derived macrophages; assay: NO release in bone marrow derived macrophages, Griess assay; assay type: cell-based, mouse; details: for NO release: 0.25 μM C1; for NO release, % of positive control: 2.5 μM C1
Description: Primary cultured macrophages. Bone marrow macrophages were isolated from C57BL/6 adult mice (P49-56) as previously described (Marim et al., 2010). In summary, mice were killed by cervical dislocation and the femurs were removed by cutting through the tibia near the pelvic bone and below the knee. Any muscle connected to the bone was carefully removed. Ice cold sterile PBS was slowly flushed through the bone and the contents were collected in a sterile 15 mL polypropylene tube on ice. After centrifugation for 10 min at 200 g at 4° C., red blood cells were lysed by adding 3-10 mL ammonium chloride solution. After a 3-5 min recovery period, the suspension was centrifuged for 10 min at 200 g at 4° C. and the supernatant was removed. Cells were plated in a 10 cm dish with plain medium containing 10 ng/mL M-CSF and cultured for 7 days to allow differentiation. 50 000 cells were plated with 200 μL medium per well in a 96 well plate.
Griess assay. Cells were seeded according to the protocols described above, after compounds and stimuli were added, 100 μl of supernatant was transferred into a new 96 well plate and 100 μl freshly mixed Griess reagent were added. Griess reagent was composed of reagent A (100 mg Naphthylethylene in 50 ml aqua dest.) and reagent B (1 g Sulfanilamide, […] H3PO4 (85%) in 44 mL aqua dest.) mixed 1:1. The solution was carefully mixed and the absorbance was determined in a microplate reader at a wavelength of 550 nm.
Microglia and macrophages share many of their immune properties, therefore the inventors evaluated the impact of C1 on the release of NO and the pro-inflammatory cytokines IL1β, IL6, and TNFα on bone marrow derived macrophages (Amici et al., 2017; Li and Barres, 2017). Bone marrow derived macrophages were isolated from adult mice and pre-treated for 1 hour with C1 (0.025 μM, 0.25 μM, or 2.5 μM), its corresponding concentration of DMSO (1.25×10-5, 12.5×10-5, or 125×10-5 v/v), or plain medium before a stimulus was added. The NO release was measured after stimulation with either 1 μg/ml LPS for 48 hours (FIG. 2-1A), 100 μg/mL PolyIC for 24 hours (FIG. 2-1B) or 100 ng/ml IFNγ for 48 hours (FIG. 2-1C). […] DMSO had no effect on the NO release in bone marrow derived macrophages stimulated with LPS or PolyIC (FIGS. 2-1A and B). However, it reduced the IFNγ induced NO release in these cells independently of the applied dose (1.25×10-5 v/v: 85%, p<0.0043; 12.5×10-5 v/v: 83%, p<0.0016; 125×10-5 v/v: 85%, p<0.0046, FIG. 2-1C), similar to the effect observed in microglia when stimulated with IFNγ (FIG. 2A).

[2] = Intravenous pharmacokinetic study in mice (blood plasma)
Description: Intravenous Pharmacokinetic Study in Mice. The intravenous pharmacokinetic study in mice was carried out by the company Touchstone Biosciences (Plymouth Meeting, USA) according to their standard procedures. In brief, 3 male adult mice of the CD-1 strain were fasted overnight. 5 mg/kg compound was given intravenously in one shot.

## COc1ccc(NC(=O)C(NC(=O)C2CCCN2C(=O)OCc2ccccc2)c2ccc(OC)cc2)cc1 (stereo not drawn) [C1]
[1]; 1 μg/mL LPS 48 hours
  NO release: reduced the NO release significantly
[1]; 100 μg/mL PolyIC 24 hours
  NO release: significant decrease
  NO release, % of positive control: 15.01±10.32% and 15%
[1]; 100 ng/mL IFNγ 48 hours
  NO release, % of positive control: 18%
[1]; 0.025, 0.25, 2.5 μM C1, LPS, PolyIC or IFNγ
  NO release, dose dependence: reduced the NO release in a dose dependent manner
[2]; 5 mg/kg intravenous, 3 mice
  survival / health issues within 24 hours: All mice survived; also recorded: no health issues were reported and all mice survived
[2]; 5 min after 5 mg/kg intravenous, CD-1 male mice
  concentration in blood plasma: 12 µM
[2]; male, CD-1, mouse, plasma, intravenous, 5 mg/kg, concentration in blood plasma, 5 min after 5 mg/kg intravenous, CD-1 male mice
  concentration at 5 min: 11.9 µM
[2]; male, CD-1, mouse, plasma, intravenous, 5 mg/kg, concentration in blood plasma, 24 hours after 5 mg/kg intravenous, CD-1 male mice
  concentration at 24 h: 0.00126 µM
